Measured values published in PMC4541002, “Quantification of Niacin and Its Metabolite Nicotinuric Acid in Human Plasma by LC-MS/MS: Application to a Clinical Trial of a Fixed Dose Combination Tablet of Niacin Extended-Release/Simvastatin (500 mg/10 mg) in Healthy Chinese Volunteers” (International Journal of Analytical Chemistry, 2015).
Where two headings read alike, the source gives them in different places.

Assays:
[1] = Pharmacokinetics of NA and NUA in plasma after single oral doses of Niacin extended-release/Simvastatin tablets in healthy Chinese volunteers; assay type: in vivo; conditions: for CLz/F: human plasma; for AUC(0-t) / AUC(0-inf) / Tmax / half-life / Cmax / k el / MRT last / Vd/F: both sexes, human, plasma, po; for k el: n = 12, read-out: K e (converted); for MRT last: n = 12, read-out: MRT0–t; for Vd/F: n = 12, read-out: V z/F
Experimental: Extraction of NA and NUA was carried out by protein precipitation. First, 50 μL of the IS working solution (1000 ng/mL 5-FU) and 50 μL of water were added to a 100 μL aliquot of human plasma. The sample mixture was then deproteinized with 250 μL of acetonitrile, and the precipitate was removed by centrifugation at 15000 rpm for 10 min. The supernatant was transferred to another tube and evaporated under a gentle stream of nitrogen at 40°C until it is dry. The residue was reconstituted in 150 μL mobile phase and vortex-mixed for 30 sec. An aliquot of 40 μL of the solution was injected into the LC-MS/MS system for analysis.
Before conducting the study all subjects provided written informed consent to participate. The study was designed as randomized, open-label, crossover, and single dose periods with a 7-day washout between each treatment. A total of 12 healthy Chinese volunteers (6 males and 6 females) aged 20 to 35 years with a body mass index between 19 and 24 kg/m^2 were recruited. Subjects were randomized into three groups (2 males and 2 females for each treatment). They were orally dosed with Niacin extended-release/Simvastatin 1, 2, and 3 tablets once daily, separately. The venous blood samples were collected at time intervals (0, 0.33, 0.66, 1.0, 1.5, 2.0, 2.5, 3.0, 3.5, 4.0, 5.0, 6.0, 8.0, 12, and 24 h) in separate vacutainers during the treatment. All blood samples were centrifuged at 3000 ×g for 10 min and the plasma was separated and kept frozen at −20°C until analysis.
The pharmacokinetic parameters were calculated with data analysis system (DAS) program (version 2.0, Mathematical Pharmacology Professional Committee, Shanghai, China). The maximum plasma concentration (C max) and the corresponding time (T max) were obtained from observed data. The terminal elimination rate constant (K e) was estimated with least-squares regression of values in the terminal log-linear region of plasma concentration-time curves, and the terminal elimination half-life (t 1/2) was calculated to be 0.693/K e. The area under the curve from time zero to the last sampling time (AUC0−t) was determined using the linear trapezoidal rule.

[2] = Stability of stock solutions of NA and NUA; assay type: physicochemical
Experimental: Two separate stock solutions of the analytes were prepared at 1 mg/mL in methanol-water (50 : 50, v/v) and stored at −20°C. A series of standard working solutions for NA and NUA were prepared by diluting stock solution with methanol-water (50 : 50, v/v). The 5-FU solution was brought to a final concentration of 1000 ng/mL in acetonitrile from 1 mg/mL in acetonitrile. All working solutions were stored at 4°C and brought to room temperature before use. Calibration standards and quality control samples were prepared by spiking 50 μL of the working solutions and 50 μL of IS into 100 μL of drug-free human plasma. Matrix-matched NA and NUA calibration standards were prepared in plasma at concentrations of 5, 10, 20, 60, 200, 600, and 800 ng/mL, respectively. Similarly, NA and NUA quality control (QC) samples were prepared separately in plasma to give concentrations of 10, 60, and 600 ng/mL.

[3] = for Found C / Found R.E.: n = 3
Experimental: The following stability tests were evaluated: (1) stability of the stock solutions of the analytes; (2) freeze and thaw stability of the analytes in the plasma from −20°C to room temperature for three cycles; (3) short-term stability of the analytes in plasma at room temperature before extraction for 3 h and the ready-to-inject samples (after extraction, in the mobile phase) to the autosampler rack for 4 h; and (4) long-term stability of the analytes in matrix stored at −20°C for two months. All stability tests samples at three concentration levels (10, 60, and 600 ng/mL) were analyzed in triplicate and the deviations were determined in relation to freshly prepared samples.

[4] = 1 tablet (500 mg/10 mg), mean ± S.D., n = 12
[5] = 2 tablets (1000 mg/20 mg), mean ± S.D., n = 12
[6] = 3 tablets (1500 mg/30 mg), mean ± S.D., n = 12
[7] = 1 tablet (500 mg/10 mg), mean ± S.D.
[8] = 2 tablets (1000 mg/20 mg), mean ± S.D.
[9] = 3 tablets (1500 mg/30 mg), mean ± S.D.
[10] = extracted plasma sample in mobile phase, autosampler for 4 h (24°C), added 10.0 ng/mL
[11] = extracted plasma sample in mobile phase, autosampler for 4 h (24°C), added 60.0 ng/mL
[12] = extracted plasma sample in mobile phase, autosampler for 4 h (24°C), added 600.0 ng/mL
[13] = human plasma, long-term (2 months at −20°C), added 10.0 ng/mL
[14] = human plasma, long-term (2 months at −20°C), added 60.0 ng/mL
[15] = human plasma, long-term (2 months at −20°C), added 600.0 ng/mL
[16] = human plasma, short-term (3 h at 24°C), added 10.0 ng/mL
[17] = human plasma, short-term (3 h at 24°C), added 60.0 ng/mL
[18] = human plasma, short-term (3 h at 24°C), added 600.0 ng/mL
[19] = human plasma, three freeze/thaw cycles, added 10.0 ng/mL
[20] = human plasma, three freeze/thaw cycles, added 60.0 ng/mL
[21] = human plasma, three freeze/thaw cycles, added 600.0 ng/mL

O=C(O)c1cccnc1 [NA, 3-pyridine-carboxylic acid]
CLz/F [1, 4]: 1271 ± 850.0 L/h
CLz/F [1, 5]: 744.0 ± 356.0 L/h
CLz/F [1, 6]: 526.0 ± 421.0 L/h
AUC(0-t) ([1]; 1 tablet): 349 ± 192 ng·h/mL
AUC(0-inf) [1, 4]: 518 ± 226 ng·h/mL
AUC(0-t) [1, 4]: 385 ± 192 ng·h/mL
Tmax [1, 4]: 2.94 ± 2.63 h
half-life [1, 4]: 8.8 ± 8.49 h
Cmax ([1]; 1 tablet (500 mg/10 mg), mean ± S.D., n = 12, read-out: C max): 160 ± 125 ng/mL
k el [1, 7]: 5.28e-05 s⁻¹
MRT last [1, 7]: 5.37 ± 1.96 h
Vd/F [1, 7]: 13700 ± 11600 L
Cmax ([1]; 1 tablet, read-out: mean maximum plasma concentration (C max)): 160 ± 125 ng/mL
AUC(0-t) ([1]; 2 tablets): 1540 ± 957 ng·h/mL
AUC(0-inf) [1, 5]: 1720 ± 923 ng·h/mL
AUC(0-t) [1, 5]: 1540 ± 957 ng·h/mL
Tmax [1, 5]: 1.82 ± 1.69 h
half-life [1, 5]: 7.33 ± 8.68 h
Cmax ([1]; 2 tablets (1000 mg/20 mg), mean ± S.D., n = 12, read-out: C max): 904 ± 487 ng/mL
k el [1, 8]: 0.000119 s⁻¹
MRT last [1, 8]: 4.4 ± 2.21 h
Vd/F [1, 8]: 7650 ± 9320 L
Cmax ([1]; 2 tablets, read-out: C max): 904 ± 487 ng/mL
AUC(0-t) ([1]; 3 tablets): 6020 ± 6580 ng·h/mL
AUC(0-inf) [1, 6]: 6100 ± 6550 ng·h/mL
AUC(0-t) [1, 6]: 6020 ± 6580 ng·h/mL
Tmax [1, 6]: 2.42 ± 1.64 h
half-life [1, 6]: 5.4 ± 4.57 h
Cmax ([1]; 3 tablets (1500 mg/30 mg), mean ± S.D., n = 12, read-out: C max): 2480 ± 1430 ng/mL
k el [1, 9]: 7.5e-05 s⁻¹
MRT last [1, 9]: 3.65 ± 1.33 h
Vd/F [1, 9]: 5200 ± 6650 L
Cmax ([1]; 3 tablets, read-out: C max): 2480 ± 1430 ng/mL
R.E.% of response, stock solution stability ([2]; seven days at −20°C versus before): −5.8%
R.E.% of response, stock solution stability ([2]; six h at room temperature versus before): −1.1%
Found C [3, 10]: 9.6 ng/mL
Found R.E. [3, 10]: −3.7%
Found C [3, 11]: 62.7 ng/mL
Found R.E. [3, 11]: 4.5%
Found C [3, 12]: 578.3 ng/mL
Found R.E. [3, 12]: −3.6%
Found C [3, 13]: 9.6 ng/mL
Found R.E. [3, 13]: −4.1%
Found C [3, 14]: 53.7 ng/mL
Found R.E. [3, 14]: −10.6%
Found C [3, 15]: 595.3 ng/mL
Found R.E. [3, 15]: −0.8%
Found C [3, 16]: 9.1 ng/mL
Found R.E. [3, 16]: −8.9%
Found C [3, 17]: 58.8 ng/mL
Found R.E. [3, 17]: −2.1%
Found C [3, 18]: 636.3 ng/mL
Found R.E. [3, 18]: 6.0%
Found C [3, 19]: 9.5 ng/mL
Found R.E. [3, 19]: −4.6%
Found C [3, 20]: 58.0 ng/mL
Found R.E. [3, 20]: −3.28%
Found C [3, 21]: 546.3 ng/mL
Found R.E. [3, 21]: −9.0%
stability in human plasma ([3]; variety of storage and process conditions (Tables 2 and 3)): did not reveal any significant degradation
